Entries after “also recorded” stand apart in the source; their conditions may differ.

Data set [1] concerns mice sensitized to TDI. Nature of the data set: Mouse ear swelling test in mice sensitized to toluene-2,4-diisocyanate (TDI), topical application. It counts as in vivo, BALB/c-mice. As to conditions: for TDI-induced ear swelling: AWD 12-281 1%, cilomilast 3%, diflorasone 0.05%. How it is done:
FIG. 6: Effect of PDE 4 inhibitors on TDI induced ear swelling in mice. […] After 1 h (grey bars) groups of mice were treated with 3% AWD 12-281, 10% cilomilast or left untreated (TDI). After 24 h, ear swelling was determined (black bars). […] Female BALB/c-mice were obtained from Charles River (Sulzfeld, Germany) at the age of 8 weeks (20 g body weight). All animals were healthy and were housed in groups of six mice per cage at 22° C. with a 12-h light/dark-cycle. Water and a standard diet (Altromin, […], Germany) were available ad libitum. After settling in for 1 week, the abdominal skin of the mice was shaved and depilated with Veet®. Subsequently, the horny layers of the abdominal skin were stripped off ten times with adhesive tapes. […] Before as well as 24 h after challenge, the ear thickness was measured with a cutimeter (model 7309, Mitutoyo, Neuss, Germany) The swelling was calculated by comparison of the values before challenge with 24 h after challenge. […] The other mice were equally distributed to the treatment groups (n=6) according to their swelling intensity, so that each group contained animals which had responded to varying extents. They had to rest until the ear thickness had reached almost a normal level after 7 days. To exclude residues of the allergen on the ears, the untreated right ears were used for the main experiment. One group of mice (n=6) was not sensitized and challenged. […] Two hours before TDI-challenge, the third and fourth group (each n=6) were treated with 20 μl (10 μl on both, the inner and outer surface) AWD 12-281 (1%=200 μg) or 20 μl cilomilast (3%=600 μg; each in acetone/DMSO 9:1) to the right ears. […] These mice were sacrificed by cervical dislocation 24 hours after TDI challenge and the ears were collected (see below). […] Five weeks after the first challenge, the animals treated with AWD 12-281 (1%) and cilomilast (3%) “therapeutically” were challenged again. Before challenge, one group was treated with AWD 12-281 (3%).

In data set [2] the test system is granulocyte influx in the dermis of mice ears. In words: Histological examination of mouse ear skin after TDI challenge. The format is in vivo, BALB/c-mice. As to conditions: mouse ear skin 24 h after TDI challenge; topical treatment. How it is done:
(§1) One part of the collected ears was fixed in 4% formaldehyde for histological section and stained with haematoxylin-eosin with respect to dermal thickness and granulocyte accumulation. These parameters were measured in 10 fields at 40 times magnification. The remaining tissue was shock-frozen and stored in liquid nitrogen immediately after sampling. For the determination of biochemical parameters, the mice ears were homogenized under liquid nitrogen. The homogenates were taken in 200 μl RPMI 1640 medium and the protease inhibitor Pefabloc® (1 mmol) was added and the samples were mixed intensively. After centrifugation (10000 g, 10 min, 4° C.), the supernatant was collected and the protein content was determined. The samples were stored at −80° C. until the cytokines were determined. Interleukin (IL) 4, IL-6 and MIP-2 were measured in the samples by ELISA using commercially available kits according to manufacturers instructions.

Data set [3] deals with interleukin 4. Nature of the data set: IL-4 in homogenized mouse ears after TDI challenge (ELISA). It counts as in vivo, BALB/c-mice. As to conditions: 24 h after TDI challenge, cilomilast 3%, diflorasone 0.05%; for concentration of interleukin 4 in homogenized mouse ears: topical 2 h before challenge, AWD 12-281 1%; for IL-4, mean inhibition (%) of the TDI induced synthesis: AWD 12-281 3%. How it is done: as §1
A general note: An ELISA detects its analyte on a solid surface through an enzyme-linked reagent.

The subject of data set [4] is interleukin 6. In words: IL-6 in homogenized mouse ears after TDI challenge (ELISA). The settings on record: 24 h after TDI challenge, cilomilast 3%, diflorasone 0.05%; for concentration of interleukin 6 in homogenized mouse ears: topical 2 h before challenge, AWD 12-281 1%; for IL-6, mean inhibition (%) of the TDI induced synthesis: AWD 12-281 3%. It counts as in vivo, BALB/c-mice. How it is done:
as §1

In data set [5] the test system is macrophage inflammatory protein 2. Nature of the data set: MIP-2 in homogenized mouse ears after TDI challenge (ELISA). It counts as in vivo, BALB/c-mice. The settings on record: 24 h after TDI challenge, cilomilast 3%, diflorasone 0.05%; for concentration of macrophage inflammatory protein 2 in homogenized mouse ears: topical 2 h before challenge, AWD 12-281 1%; for MIP-2, mean inhibition (%) of the TDI induced synthesis: AWD 12-281 3%. How it is done:
as §1

Data set [6] deals with chronic obstructive pulmonary disease. As to conditions: Phase II/III clinical trials; Giembycz, 2001, Dyke & Montana, 2002; cited from earlier work.
In data set [7] the test system is IL-4. The settings on record: Griswold et al., 1998; cited from earlier work.
[8] abbreviates: single topical application 2 h before TDI challenge, 1, 5 and 24 h after challenge.
The mark [9] stands for this setting: topical 1 h after TDI challenge (therapeutic), 24 h after challenge.

For the compound `COc1ccc([C@]2(C#N)CC[C@@H](C(=O)O)CC2)cc1OC1CCCC1` [cilomilast], the TDI-induced ear swelling result in data set [1] (setting [8]) is “inhibited the TDI-induced swelling significantly at all measured times”; in data set [1] (setting [9]), “lacks significant inhibitory effects; also recorded: failed to do so”; in data set [1] (topical 1 h after TDI challenge (therapeutic), 24 h after challenge, listed as Cilomilast), “no significant inhibition; also recorded: slight, but not significant reduction of the swelling”. Besides, in data set [1] (treated 1 h after 0.5% TDI, 3% AWD 12-281, 10% cilomilast, ear swelling after 24 h (FIG. 6)), the “TDI induced ear swelling” value is “did not show a significant inhibitory effect”. For the same compound, the “edema and influx of inflammatory cells (mainly granulocytes)” value in data set [2] is reported as “inhibited these inflammatory processes markedly”. Also, the entries for the “concentration of interleukin 4 in homogenized mouse ears” value in data set [3] and in data set [3] (listed as Cilomilast) were “inhibited the increase significantly” and “reduced the concentration of all mediators significantly”, respectively. Further, the “IL-4, mean inhibition (%) of the TDI induced synthesis” value in data set [3] worked out at 74%. For the same compound, the “concentration of interleukin 6 in homogenized mouse ears” value in data set [4] is “inhibited this response significantly”; in data set [4] (listed as Cilomilast), “reduced the concentration of all mediators significantly”. The “IL-6, mean inhibition (%) of the TDI induced synthesis” value in data set [4] stood at 49%. Also, the figures for the “concentration of macrophage inflammatory protein 2 in homogenized mouse ears” value in data set [5] and in data set [5] (listed as Cilomilast) were “diminished the increase of the MIP-2 concentration significantly” and “reduced the concentration of all mediators significantly”, respectively. In data set [5], the “MIP-2, mean inhibition (%) of the TDI induced synthesis” value is 66%. In data set [6], the lung function entry is reported as “clinically significant increase in lung function”. In addition, in data set [7], the IL-4 in vivo result was “inhibit IL-4 in vivo”.

Take `CC(=O)OCC(=O)[C@@]1(OC(C)=O)[C@@H](C)C[C@H]2[C@@H]3C[C@H](F)C4=CC(=O)C=C[C@]4(C)[C@@]3(F)[C@@H](O)C[C@@]21C` [diflorasone, reference compound]: the TDI-induced ear swelling result in data set [1] (setting [8]) was “inhibited the TDI-induced swelling significantly at all measured times”. Also, in data set [1] (setting [9]), the TDI-induced ear swelling entry is on record as “inhibited the TDI induced ear swelling significantly”. Besides, the “edema and influx of inflammatory cells (mainly granulocytes)” value in data set [2] is reported as “inhibited these inflammatory processes markedly”. Further, in data set [3], the “concentration of interleukin 4 in homogenized mouse ears” value was “reduced the concentration of all mediators significantly; also recorded: inhibited the increase significantly” and the “IL-4, mean inhibition (%) of the TDI induced synthesis” value is reported as 50%. In data set [4], the “concentration of interleukin 6 in homogenized mouse ears” value was “reduced the concentration of all mediators significantly; also recorded: inhibited this response significantly” and the “IL-6, mean inhibition (%) of the TDI induced synthesis” value turned out to be 52%. For the same compound, in data set [5], the “concentration of macrophage inflammatory protein 2 in homogenized mouse ears” value is reported as “reduced the concentration of all mediators significantly; also recorded: diminished the increase of the MIP-2 concentration significantly” and the “MIP-2, mean inhibition (%) of the TDI induced synthesis” value is 76%.

The values are drawn from patent US20040038958A1, “Topical treatment of skin diseases” (priority 2002, published 2004).
